Peptide text beside a SMILES is read from it. * marks the point of attachment. Cbz = O=C(OCc1ccccc1)*; CH2F = FC*
B1: recombinant TRAIL (protein)
chain: PRGGRPQKVAAHITGITRRSNSALIPISKDGKTLGQKIESWESSRKGHSFLNHVLFRNGELVIEQEGLYYIYSQTYFRFQEAEDASKMVSKDKVRTKQLVQYIYKYTSYPDPIVLMKSARNSCWSRDAEYGLYSIYQGGLFELKKNDRIFVSVTNEHLMDLDQEASFFGAFLIN

How the values were obtained:
[1] = tested on: GP33-41-specific CD8+ T cells; assay type: cell-based, mouse; settings: 6 days
[2] = tested on: E1B192-200-specific CD8+ T cells; assay type: cell-based, mouse; settings: for secondary expansion of purified helpless CD8+ T cells (fold expansion of IFN-γ-producing E1B192-200-specific CD8+ T cells): caspase inhibitors 20 μM, 6 days after in vitro restimulation, CD4-depleted mice, FIGS. 1a, 1b

Row | Molecule | secondary expansion of helpless LCMV-specific CD8+ T cells [1] | secondary expansion of purified helpless CD8+ T cells (fold expansion of IFN-γ-producing E1B192-200-specific CD8+ T cells) [2] | secondary expansion of helpless CD8+ T cells from TRAIL-deficient mice in presence of exogenous TRAIL ([2]; CD4-depleted TRAIL-/- mice, 6 days, FIG. 4b) | secondary expansion of helped CD8+ T cells in presence of exogenous TRAIL ([2]; intact wild type mice, 6 days, FIG. 4a)
1 | COC(=O)C[C@H](NC(=O)[C@H](C)NC(=O)[C@@H](NC(=O)OCc1ccccc1)C(C)C)C(=O)CF [zVAD-fmk, benzyloxycarbonyl-Val-Ala-Asp-fluoromethyl ketone] (Cbz-Val-Ala-Asp(OMe)-CH2F) | restored | restored secondary expansion | – | –
2 | CC(C)C(NC(=O)c1ccc2ccccc2n1)C(=O)NC(CC(=O)O)C(=O)COc1c(F)cccc1F (stereo not drawn) [qVD-OPh, quinoline-Val-Asp-CH2-difluorophenoxy] | – | restored secondary expansion | – | –
3 | B1 | – | – | failed to do so | completely inhibited secondary expansion

Source: patent US20110038855A1, “TRAIL AND METHODS OF MODULATING T CELL ACTIVITY AND ADAPTIVE IMMUNE RESPONSES USING TRAIL” (priority 2005, published 2011)
